# From PubChem BioAssay (NCI)
#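 Grown in 96-well plates, cells were treated for 48 hours with each compound at five concentrations. Insufficient inhibition: endpoint recorded as highest concentration tested. TGI denotes the concentration required for complete inhibition of growth.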
# Tests used:
# Experiment in all cases: growth of human tumour cells (NCI), 48 h
# [1] = test system: SNB-19 CNS
# [2] = test system: OVCAR-8 ovarian
# [3] = test system: HOP-92 NSCLC
# [4] = test system: UO-31 renal
# [5] = test system: RXF 393 renal
# [6] = test system: SK-MEL-5 melanoma
# [7] = test system: UACC-62 melanoma
# [8] = test system: NCI/ADR-RES ovarian
# [9] = test system: SK-OV-3 ovarian
# [10] = test system: K-562 leukemia
# [11] = test system: HCT-116 colon
# [12] = test system: MDA-MB-435
# [13] = test system: RPMI-8226 leukemia
# [14] = test system: MALME-3M melanoma
# [15] = test system: SF-268 CNS
# [16] = test system: SF-539 CNS
# [17] = test system: MOLT-4 leukemia
# [18] = test system: EKVX NSCLC
# [19] = test system: CCRF-CEM leukemia
# [20] = test system: M14 melanoma
# [21] = test system: HCT-15 colon
# [22] = test system: DU-145 prostate
# [23] = test system: SK-MEL-28 melanoma
# [24] = test system: SNB-75 CNS
# [25] = test system: HL-60(TB) leukemia
# [26] = test system: OVCAR-3 ovarian
# [27] = test system: TK-10 renal
# [28] = test system: SK-MEL-2 melanoma
# [29] = test system: CAKI-1 renal
# [30] = test system: PC-3 prostate
# [31] = test system: 786-0 renal
# [32] = test system: HS 578T breast
# [33] = test system: SN12C renal
# [34] = test system: COLO 205 colon
# [35] = test system: A549 NSCLC
# [36] = test system: NCI-H23 lung
# [37] = test system: OVCAR-4 ovarian
# [38] = test system: SF-295 CNS
# [39] = test system: HOP-62 NSCLC
# [40] = test system: KM12 colon
# [41] = test system: UACC-257 melanoma
# [42] = test system: A498 renal
# [43] = test system: OVCAR-5 ovarian
# [44] = test system: T-47D breast
# [45] = test system: IGROV1 ovarian
# [46] = test system: ACHN renal
# [47] = test system: NCI-H226 lung
# [48] = test system: MDA-MB-231 breast
# [49] = test system: NCI-H460 lung
# [50] = test system: SR leukemia
# [51] = test system: SW-620 colon
# [52] = test system: MDA-N
# [53] = test system: HT29 colon
# [54] = test system: HCC-2998 colon
# [55] = test system: NCI-H522 lung
# [56] = test system: U251 CNS
# [57] = test system: BT-549 breast
# [58] = test system: MCF7 breast
smiles,measurement,setting,value
CC12CCC(CC(=O)/C1=C(/Br)I)C2(C)C (stereo not given),TGI,[1],30.7 µM
same,TGI,[2],34.3 µM
same,TGI,[3],31.6 µM
same,TGI,[4],32.1 µM
same,TGI,[5],20.6 µM
same,TGI,[6],23.6 µM
same,TGI,[7],30.4 µM
same,TGI,[8],29.8 µM
same,TGI,[9],45.4 µM
same,TGI,[10],26.4 µM
same,TGI,[11],24.9 µM
same,TGI,[12],28.6 µM
same,TGI,[13],26.4 µM
same,TGI,[14],25.8 µM
same,TGI,[15],28.9 µM
same,TGI,[16],29.2 µM
same,TGI,[17],23.9 µM
same,TGI,[18],36.6 µM
same,TGI,[19],30.5 µM
same,TGI,[20],28.3 µM
same,TGI,[21],31.2 µM
same,TGI,[22],34.8 µM
same,TGI,[23],30.4 µM
same,TGI,[24],31 µM
same,TGI,[25],12 µM
same,TGI,[26],26.9 µM
same,TGI,[27],32.9 µM
same,TGI,[28],30.3 µM
same,TGI,[29],31.2 µM
same,TGI,[30],23.6 µM
same,TGI,[31],30.2 µM
same,TGI,[32],44 µM
same,TGI,[33],29.6 µM
same,TGI,[34],31.9 µM
same,TGI,[35],29.3 µM
same,TGI,[36],27.9 µM
same,TGI,[37],29.1 µM
same,TGI,[38],3.03 µM
same,TGI,[39],32.1 µM
same,TGI,[40],32 µM
same,TGI,[41],29.8 µM
same,TGI,[42],33.7 µM
same,TGI,[43],8.76 µM
same,TGI,[44],46.4 µM
same,TGI,[45],31.4 µM
same,TGI,[46],32.1 µM
same,TGI,[47],29.9 µM
same,TGI,[48],17.6 µM
same,TGI,[49],> 100 µM
same,TGI,[50],39 µM
same,TGI,[51],34.4 µM
same,TGI,[52],26.7 µM
same,TGI,[53],25 µM
C[C@@H]1OC(=O)C[C@H]2CC(=O)N(CCC3CN(C(=O)OCc4ccccc4)c4ccccc43)C[C@@H]21 (stereo not given in full),TGI,[54],> 100 µM
same,TGI,[1],> 100 µM
same,TGI,[2],> 100 µM
same,TGI,[3],> 100 µM
same,TGI,[4],> 100 µM
same,TGI,[55],> 100 µM
same,TGI,[5],> 100 µM
same,TGI,[6],> 100 µM
same,TGI,[56],> 100 µM
same,TGI,[7],> 100 µM
same,TGI,[8],> 100 µM
same,TGI,[9],> 100 µM
same,TGI,[10],> 100 µM
same,TGI,[11],> 100 µM
same,TGI,[12],> 100 µM
same,TGI,[13],> 100 µM
same,TGI,[14],> 100 µM
same,TGI,[15],> 100 µM
same,TGI,[17],> 100 µM
same,TGI,[18],> 100 µM
same,TGI,[20],> 100 µM
same,TGI,[21],> 100 µM
same,TGI,[22],> 100 µM
same,TGI,[23],> 100 µM
same,TGI,[24],> 100 µM
same,TGI,[26],> 100 µM
same,TGI,[57],> 100 µM
same,TGI,[27],> 100 µM
same,TGI,[28],> 100 µM
same,TGI,[29],> 100 µM
same,TGI,[30],> 100 µM
same,TGI,[31],> 100 µM
same,TGI,[32],> 100 µM
same,TGI,[34],> 100 µM
same,TGI,[35],> 100 µM
same,TGI,[36],> 100 µM
same,TGI,[37],> 100 µM
same,TGI,[38],> 100 µM
same,TGI,[39],> 100 µM
same,TGI,[40],> 100 µM
same,TGI,[41],> 100 µM
same,TGI,[42],> 100 µM
same,TGI,[43],> 100 µM
same,TGI,[44],> 100 µM
same,TGI,[58],> 100 µM
same,TGI,[45],> 100 µM
same,TGI,[46],> 100 µM
same,TGI,[48],> 100 µM
same,TGI,[49],> 100 µM
same,TGI,[51],> 100 µM
same,TGI,[52],> 100 µM
same,TGI,[53],> 100 µM
